Where “and” joins values, the source holds several entries; their conditions need not be identical. Equal values may be shown once. Read-outs that look alike come from different tables or passages of the source.
Columns and labels:
[1] = tested on: Trypanosoma cruzi epimastigotes (Tulahuen 2 strain); assay: Anti-Trypanosoma cruzi activity: growth inhibition of epimastigotes (absorbance at 600 nm, day 5); assay type: cell-based; details: T. cruzi epimastigotes; for GI (%) / percentage of growth inhibition (PGI): test concentration not given
Description: Trypanosoma cruzi epimastigotes (Tulahuen 2 strain) were grown at 28 °C in an axenic milieu (BHI-Tryptose) supplemented with 5% fetal bovine serum (FBS), as previously described. Cells from a 10-day-old culture (stationary phase) were inoculated into 50 mL of fresh culture milieu to give an initial concentration of 1 × 10^6 cells per mL. Cell growth was followed by measuring the absorbance of the culture at 600 nm every day. Before inoculation, the milieu was supplemented with a given amount of the coumarin from a freshly prepared stock solution in DMSO (25 mM). The final concentration of DMSO in the culture medium never exceeded 0.4%, and the control was run in the presence of 0.4% DMSO and in the absence of drugs. […] Nifurtimox (Nfx) was used as the reference trypanocidal drug. The percentage of growth inhibition (PGI) was calculated as follows: PGI (%) = {1 - [(Ap - A0p) / (Ac - A0c)]} × 100, where Ap = […] of the culture containing the studied compound at day 5; […] = […] of the culture containing the studied compound just after addition of the inocula (day 0); Ac = […] of the culture in the absence of the studied compound (control) at day 5; […] = […] in the absence of the studied compound at day 0. […] At day 5, the absorbance of the culture was measured and related to the control.

[2] = tested on: Caenorhabditis elegans N2 (wild type); details: L1 worms exposed 30 min, survival counted 24 hours after exposure
Description: The nematode strain used was N2 (wild type), originally obtained from the Caenorhabditis Genetics Center (University of Minnesota, Twin Cities, MN, USA), which was maintained on nematode growth medium (NGM) plates seeded with Escherichia coli OP50 at 20°C. Synchronization of C. elegans cultures at the first larval stage (L1) was achieved by washing off the gravid nematodes from the plates into the centrifuge tubes, which were lysed with a bleaching mixture (1% NaOCl; 0.25 M NaOH), followed by flotation on a sucrose solution 30% (m/v) to separate the eggs from the dissolved worms and bacterial debris. The eggs were washed with M9 buffer (0.02 M KH2PO4, 0.04 M Na2HPO4, 0.08 M NaCl, and 0.001 M MgSO4) and allowed to hatch overnight (16 hours) in NGM agar plates without bacteria. After 16 hours it was obtained worms at L1 stage. Then, 1.500 L1 worms were exposed for 30 minutes at 20°C, by constant agitation in a rotator, at crescent doses ranging from 25 to 100 mM of coumarins in a 0.5% NaCl liquid media. Stock solutions of coumarins were made in DMSO, therefore worms treated with 0.5% NaCl and 0.5% DMSO were used as controls. After exposure, worms were washed 3 times with 0.5% NaCl to remove the treatments. Finally, worms were transferred to NGM recovery plates inoculated with Escherichia coli (OP50) for posterior assays.
The LD50 of coumarins was determined in C. elegans after exposure. The worms were washed three times with NaCl buffer and placed on OP50-seeded NGM plates. The number of surviving worms on each plate was verified 24 hours after exposure. The lethality data was normalized with the controls and presented as a percentage. All the coumarins were tested in three independent experiments with each concentration tested in two replicates within each experiment.

[3] = tested on: Caenorhabditis elegans N2 (wild type); assay: Body area (worm development) of C. elegans after acute exposure; assay type: in vivo; details: 30 min exposure, measured 48 hours after exposure; tested 25 to 100 mM; ANOVA/Bonferroni
Description: For the evaluation of body area, 48 hours after exposure the adult worms (20 nematodes per treatment) were photographed and their body contour was measured. For this, the NGM plates were washed with distilled water and the resulting solution was transferred to a centrifuge tube, where the worm was allowed to settle, separating it from the bacteria in suspension. The process was repeated until the solution became clear. […] The pictures were acquired from 20 worms per treatment, which were manually contoured and measured with AxioVision software LE version 4.8.2.0 for Windows.

[4] = tested on: Trypanosoma cruzi epimastigotes (Tulahuen 2 strain); parameters: method as in PMID 19811923; details: in vitro, epimastigote form of T. cruzi; cited from earlier work
T. cruzi = tested on: T. cruzi; parameters: method as in doi:10.1351/pac200173030617; details: proposed mechanism glyceraldehyde 3-phosphate dehydrogenase inhibition; cited from earlier work
C. elegans = tested on: C. elegans; parameters: method as in PMID 23727123; details: for the worm; cited from earlier work
Trypanosoma cruzi = tested on: Trypanosoma cruzi; parameters: method as in PMID 24340110; details: cited from earlier work
[5] = Trypanosoma cruzi, TULAHUEN, 120 h, read-out: IC50

Compound | IC50 [1, 5] | melting point | GI (%) / percentage of growth inhibition (PGI) [1] | further results
Cc1ccc2oc(=O)cc(CN(C)c3ccccc3)c2c1 [10g] | < 10 µM | – | – | IC50 ([1]; read-out: IC50): 8.9 µM; LD50 (DL50) [2]: 42.3 mM
Cc1ccc2oc(=O)cc(CN3CCOCC3)c2c1 [10k] | – | 99 to 100 °C | Inactive | IC50 [1]: Inactive
Cc1ccc2oc(=O)cc(CN3CCSCC3)c2c1 [10l] | – | 121 to 122 °C | Inactive | IC50 [1]: Inactive
Cc1ccc2oc(=O)cc(CN3CCS(=O)(=O)CC3)c2c1 [10m] | – | 170 to 172 °C | Inactive | IC50 [1]: Inactive
Cc1ccc2oc(=O)cc(CN3CCC(c4ccccc4)CC3)c2c1 [10n] | 13.2 ± 2.6 µM | 106 to 107 °C | < 62.7% | –
CCc1ccc2oc(=O)cc(CNc3ccccc3)c2c1 [11a] | 27.7 ± 1.3 µM | 91 to 93 °C | 35.7 ± 0.7% | –
CCc1ccc2oc(=O)cc(CNc3ccc(C)cc3)c2c1 [11b] | > 25 µM | 171 to 172 °C | < 39.5% | –
CCc1ccc2oc(=O)cc(CNc3ccc(Cl)cc3)c2c1 [11c] | 11.2 ± 1.7 µM | 171 to 173 °C | 67.6 ± 2.7% | –
CCc1ccc2oc(=O)cc(CNc3ccc(Br)cc3)c2c1 [11d] | 35.4 ± 2.1 µM | 184 to 186 °C | < 21.9% | –
CCc1ccc2oc(=O)cc(CNc3ccc(OC)cc3)c2c1 [11e] | > 25 µM | 151 to 152 °C | < 52.5% | –
CCc1ccc2oc(=O)cc(CNc3cc(C)cc(C)c3)c2c1 [11f] | > 25 µM | 176 to 178 °C | < 44.3% | –
CCc1ccc2oc(=O)cc(CN(C)c3ccccc3)c2c1 [11g] | 8.2 ± 2.3 µM | – | < 78.6% | IC50 ([1]; read-out: IC50): < 10 µM; LD50 (DL50) [2]: 61.7 mM and 61.50 mM; LD50 (DL50) ([2]; listed as LaSOM 231): 61.55 mM
CCc1ccc2oc(=O)cc(CN(C)c3ccc(Cl)cc3)c2c1 [11h] | 6.4 ± 1 µM | – | – | concentrations with significant reduction of body area compared with the control [3]: 50 mM; IC50 ([1]; read-out: IC50): < 10 µM; LD50 (DL50) [2]: 73.4 mM and 70.81 mM
CCc1ccc2oc(=O)cc(CN3CCCCC3)c2c1 [11i] | 13.9 ± 2.8 µM | 96 to 98 °C | < 71.4% | –
CCc1ccc2oc(=O)cc(CN3CCNCC3)c2c1 [11j] | – | > 300 °C | Inactive | IC50 [1]: Inactive
CCc1ccc2oc(=O)cc(CN3CCOCC3)c2c1 [11k] | 22.7 ± 3.1 µM | 110 to 113 °C | 57.6 ± 3.4% | –
CCc1ccc2oc(=O)cc(CN3CCSCC3)c2c1 [11l] | > 10 µM | 134 to 135 °C | 72.9 ± 0.4% | –
CCc1ccc2oc(=O)cc(CN3CCS(=O)(=O)CC3)c2c1 [11m] | > 100 µM | 175 to 177 °C | < 10.2% | –
CCc1ccc2oc(=O)cc(CN3CCC(c4ccccc4)CC3)c2c1 [11n] | 30.3 ± 0.9 µM | 118 to 120 °C | 26.7 ± 4.0% | –
O=C(Cn1ccnc1[N+](=O)[O-])NCc1ccccc1 [Benznidazole] | – | – | – | IC50 compared with Nifurtimox [4]: very similar IC50 values
C=CC(C)(C)c1cc2cc3c(cc2oc1=O)O[C@H](C(C)(C)O)C3 [Chalepin] | – | – | – | IC50 (T. cruzi): 64 µM
CCCSc1ccc2nc(NC(=O)OC)[nH]c2c1 [albendazole] | – | – | – | EC50 (C. elegans): 18.4 µM
Soulamarin | – | – | – | IC50 (Trypanosoma cruzi): 210 µM

Source: paper PMC6921407, “Novel coumarins active against Trypanosoma cruzi and toxicity assessment using the animal model Caenorhabditis elegans” (BMC Pharmacology & Toxicology, 2019)
